Measurements as given in patent US8410278B2, “Method for preparing a non-hydratable crystal form” (E I du Pont de Nemours and Company, priority 2008, dated 2013).

Legend:
[1] = Water uptake/loss on exposure to variations in atmospheric humidity; assay type: physicochemical
Text: (§1) A method has now been discovered for the preparation of a non-hydratable polymorph of Compound 1 (Polymorph A) from a hydratable polymorph of Compound 1 (Polymorph B) that typically is initially formed by procedures for preparing Compound 1. […] This surprising stability facilitates a more consistent assay of Compound 1. These characteristics also make Polymorph A of Compound 1 well suited for the production of long-lasting stable solid formulations, enabling specifying a stable active ingredient content.

[2] = Crystal form stability during long-term storage; assay type: physicochemical
Text: as §1

[3] = assay type: physicochemical
Text: Remarkably water is now discovered to work very well as a solvent in the heated liquid phase for converting Polymorph B to Polymorph A. This is particularly unexpected, because Polymorph B, which can accommodate significant amounts of water in its crystal lattice, can be anticipated to be favored over anhydrous Polymorph A in an aqueous medium. Nevertheless, water is now found to be particularly suitable in forming the liquid phase for conversion of Polymorph B to Polymorph A. Conversion proceeds to near 100% completion and in high yields within commercially convenient time periods at temperatures not exceeding about 100° C. (i.e. the normal boiling point of water). […] Alternatively if Polymorph A is in high concentration in water, Polymorph A can be isolated by evaporation of the water.

## CNC(=O)c1cc(C#N)cc(C)c1NC(=O)c1cc(Br)nn1-c1ncccc1Cl [Polymorph B, 3-bromo-1-(3-chloro-2-pyridinyl)-N-[4-cyano-2-methyl-6-[(methylamino)carbonyl]phenyl]-1H-pyrazole-5-carboxamide]
[1]
  Change of water content on exposure to variations in atmospheric humidity: changes significantly

## CNC(=O)c1cc(C#N)cc(C)c1NC(=O)c1cc(Br)nn1-c1ncccc1Cl [Polymorph A, 3-bromo-1-(3-chloro-2-pyridinyl)-N-[4-cyano-2-methyl-6-[(methylamino)carbonyl]phenyl]-1H-pyrazole-5-carboxamide]
[1]
  Change of water content on exposure to variations in atmospheric humidity: does not gain or lose appreciable amounts of water
[2]
  Conversion to Polymorph B during long-term storage: does not typically convert to Polymorph B
[3]
  Solubility in water: little solubility in water
